Measurements taken from ChEMBL document CHEMBL2380265, “Inhibitors of the p53/hdm2 protein-protein interaction-path to the clinic” (Bioorg Med Chem Lett, 2013).
pIC50, pKd: −log10 of the molar value. Where a SMILES comes first, the peptide text is derived from it. [ ]: non-standard residue; d: D form. Trp(6-Cl) = N[C@@H](Cc1c[nH]c2cc(Cl)ccc12)C(=O)O; Pmp = N[C@@H](Cc1ccc(CP(=O)(O)O)cc1)C(=O)O; Ac3c = NC1(C(=O)O)CC1; Aib = CC(C)(N)C(=O)O

How the values were obtained:
[1] = target: T1, E3 ubiquitin-protein ligase Mdm2 (Homo sapiens, UniProt Q00987); test: Antagonist activity at human GST-tagged MDM2 assessed as inhibition of binding to full length p53
[2] = target: Tumour suppressor p53/oncoprotein Mdm2 (Homo sapiens, UniProt P04637+Q00987); test: Binding affinity to human MDM2/p53; format: protein assay
[3] = target: T1, E3 ubiquitin-protein ligase Mdm2; test: Antagonist activity at human MDM2

T1 sequence (Q00987 whole entry): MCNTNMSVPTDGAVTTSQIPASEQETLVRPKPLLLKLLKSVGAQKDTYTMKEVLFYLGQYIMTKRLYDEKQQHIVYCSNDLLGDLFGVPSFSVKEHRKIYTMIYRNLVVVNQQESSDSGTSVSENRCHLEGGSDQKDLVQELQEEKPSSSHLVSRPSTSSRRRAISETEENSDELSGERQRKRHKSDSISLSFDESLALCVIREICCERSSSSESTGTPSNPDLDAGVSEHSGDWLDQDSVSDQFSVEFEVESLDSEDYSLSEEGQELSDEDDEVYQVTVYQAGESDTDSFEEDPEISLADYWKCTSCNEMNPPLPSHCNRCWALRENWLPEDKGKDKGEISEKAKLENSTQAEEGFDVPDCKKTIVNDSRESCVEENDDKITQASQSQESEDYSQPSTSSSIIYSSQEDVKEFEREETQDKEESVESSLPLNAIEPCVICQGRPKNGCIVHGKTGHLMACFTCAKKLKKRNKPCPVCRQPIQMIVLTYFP
Tumour suppressor p53/oncoprotein Mdm2, sequence (P04637 whole entry): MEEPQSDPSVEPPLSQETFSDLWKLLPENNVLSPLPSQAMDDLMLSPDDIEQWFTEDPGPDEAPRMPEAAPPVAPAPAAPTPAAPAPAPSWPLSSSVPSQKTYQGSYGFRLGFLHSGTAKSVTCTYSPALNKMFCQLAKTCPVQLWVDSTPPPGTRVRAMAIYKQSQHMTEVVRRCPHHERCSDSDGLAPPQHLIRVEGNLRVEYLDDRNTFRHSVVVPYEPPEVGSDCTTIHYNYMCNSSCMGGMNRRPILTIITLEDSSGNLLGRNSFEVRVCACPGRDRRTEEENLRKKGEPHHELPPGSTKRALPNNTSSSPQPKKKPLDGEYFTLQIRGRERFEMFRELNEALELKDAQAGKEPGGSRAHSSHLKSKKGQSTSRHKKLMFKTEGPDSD
Tumour suppressor p53/oncoprotein Mdm2, sequence (Q00987 whole entry): as the sequence (Q00987 whole entry) above

| pIC50 [3] | Structure (SMILES) | other results |
| --- | --- | --- |
| – | CSCC[C@H](NC(=O)[C@H](Cc1ccccc1)NC(C)=O)C(=O)NC(C)(C)C(=O)N[C@@H](Cc1ccc(CP(=O)(O)O)cc1)C(=O)N[C@@H](Cc1c[nH]c2cc(Cl)ccc12)C(=O)N[C@@H](CCC(=O)O)C(=O)NC1(C(=O)N[C@@H](CC(C)C)C(N)=O)CC1 (Ac-FM[Aib][Pmp][Trp(6-Cl)]E[Ac3c]L-NH2) | pIC50 [1]: 8.30 |
| – | CCOc1cc(C(C)(C)C)ccc1C1=N[C@@H](c2ccc(Cl)cc2)[C@@H](c2ccc(Cl)cc2)N1C(=O)N1CCN(CCCS(C)(=O)=O)CC1 | pKd [2]: 7.97 |
| 6.50 | CSCC[C@H](NC(=O)[C@H](Cc1ccccc1)NC(=O)[C@H](CCCN=C(N)N)NC(=O)[C@@H]1CCCN1C(=O)[C@H](CCSC)NC(C)=O)C(=O)N[C@@H](CC(=O)O)C(=O)N[C@@H](Cc1ccc(O)cc1)C(=O)N[C@@H](Cc1c[nH]c2ccccc12)C(=O)N[C@@H](CCC(=O)O)C(=O)NCC(=O)N[C@@H](CC(C)C)C(=O)N[C@@H](CC(N)=O)C(N)=O (Ac-MPRFMDYWEGLN-NH2) | – |
| 5.05 | CSCC[C@H](NC(=O)[C@@H](N)Cc1ccccc1)C(=O)N[C@@H](CC(=O)O)C(=O)N[C@@H](Cc1ccc(O)cc1)C(=O)N[C@@H](Cc1c[nH]c2ccccc12)C(=O)N[C@@H](CCC(=O)O)C(=O)NCC(=O)N[C@@H](CC(C)C)C(N)=O (H-FMDYWEGL-NH2) | – |
